Data from paper PMC5658448, “From receptor binding kinetics to signal transduction; a missing link in predicting in vivo drug-action” (Scientific Reports, 2017).
Where two headings read alike, the source gives them in different places.

What was measured:
[1] = biological target: human neurokinin 1 receptor (Homo sapiens, UniProt P25103); experiment: Real-time cAMP accumulation assay (GloSensor) in CHOhNK1 cells; type: cell-based; conditions: for type of antagonism (insurmountability): antagonist pre-incubation before SP or NKA, cAMP and morphology assays; for decrease of onset of NKA-induced cAMP production: antagonist pretreatment
human neurokinin 1 receptor, sequence (P25103 whole entry): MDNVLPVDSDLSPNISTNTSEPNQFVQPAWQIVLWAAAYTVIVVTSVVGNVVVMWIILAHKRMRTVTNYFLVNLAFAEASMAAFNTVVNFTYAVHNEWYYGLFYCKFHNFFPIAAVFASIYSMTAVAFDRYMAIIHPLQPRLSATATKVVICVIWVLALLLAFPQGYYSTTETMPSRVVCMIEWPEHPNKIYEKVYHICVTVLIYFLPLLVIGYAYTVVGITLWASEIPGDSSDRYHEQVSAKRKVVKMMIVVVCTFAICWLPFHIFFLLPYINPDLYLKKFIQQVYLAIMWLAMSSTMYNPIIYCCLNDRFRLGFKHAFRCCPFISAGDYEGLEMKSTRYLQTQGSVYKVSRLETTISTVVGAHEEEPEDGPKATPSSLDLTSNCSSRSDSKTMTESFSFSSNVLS
Description: Real-time cAMP production was measured using the life cell cAMP GloSensor^TM assay[11],[12]. The technology is based on a cAMP-biosensor, which undergoes a conformational change upon cAMP binding, followed by the turnover of Luciferin.
CHOhNK1 cells were transiently transfected with the pGloSensor™-22F cAMP (6 ng/µL) plasmid using FuGene HD (3 µL:1 µg DNA plasmid) as a transfection reagent. Accordingly, cells were harvested and reconstituted to 0.5 × 10^6 cells/ml (10,000 cells/well) in DMEM/F-12/ HEPES supplemented with 1% FCS, 2 mM glutamine and 1 mg/ml G418. The diluted plasmid solution was combined with the transfection reagent and incubated for 20 min at room temperature. Subsequently, the transfection mixture and cell solution were mixed for additional 5 min before plating in 384-well plates. The transfected cells were incubated for 24 h at 37 °C + 5% CO2 followed by treatment with Glo-substrate (3% v/v) for 2 h at room temperature. […] Real-time changes in the level of cAMP were detected using an Envision HTS microplate reader 2103 (PerkinElmer).
(§1) The onset of receptor activation was analyzed by calculating the slope with linear regression of the first 8 minutes of the cellular response.2 onset=Δcellularresponse/Δtime

NK1 receptor [2] = biological target: T1, NK1 receptor (Homo sapiens, UniProt P25103); experiment: Impedance-based morphology assay (xCELLigence) in U-251 MG cells; type: cell-based; parameters: host or cells: U-251 MG cells; conditions: for Onset of receptor activation, morphology, NKA / Onset of receptor activation, morphology, SP / decrease of onset of NKA-induced morphological changes / decrease of onset of SP-induced impedance changes: first 8 min; for decrease of onset of NKA-induced morphological changes / decrease of onset of SP-induced impedance changes: antagonist pretreatment; for increase of EC50 value of NKA: xCELLigence, highest antagonist concentration; for IC50: antagonist pre-incubation
T1 sequence (P25103 whole entry): as above
Description: Label-free morphology assays were performed using the xCELLigence RTCA system as described previously[27],[42].
as §1

NK1 receptor [3] = biological target: T1, NK1 receptor; parameters: host or cells: U-251 MG cells; conditions: room temperature; cited from earlier work
NK1 receptor [4] = biological target: T1, NK1 receptor; parameters: host or cells: U-251 MG cells; conditions: cited from earlier work
NK1 receptor [5] = biological target: T1, NK1 receptor; experiment: Radioligand binding affinity at the NK1 receptor ([3H][Sar9,Met(O2)11]SP, CHOhNK1 membranes)
NK1 receptor [6] = biological target: T1, NK1 receptor; experiment: Dual-point competition association assay (kinetic rate index); type: binding; conditions: 4 °C; Bt1 (30 min)/Bt2 (120 min); vs radioligand [3H][Sar9,Met(O2)11]SP
Description: Dual-point competition association assays were performed as prescribed previously, following the radioligand binding protocol of Nederpelt et al.[27].
Data from dual-point competition association assays were analyzed by dividing the specific binding at t1 (Bt1) with the specific binding at t2 (Bt2).1 KRI=Bt1/Bt2 Data from morphology and cAMP experiments were analyzed as described previously. […] Results were normalized to the maximal response induced by agonist without antagonist.

NK1 receptor [7] = biological target: T1, NK1 receptor; parameters: host or cells: U-251 MG cells; conditions: agonist alone; normalized to NKA only; cited from earlier work
[8] = NKA after 0.07 nM antagonist, first 8 min
[9] = NKA after 0.21 nM antagonist, first 8 min
[10] = NKA after 0.7 nM antagonist, first 8 min
[11] = SP after 0.07 nM antagonist, first 8 min
[12] = SP after 0.21 nM antagonist, first 8 min
[13] = SP after 0.7 nM antagonist, first 8 min
[14] = NKA after 0.07 nM antagonist, normalized to NKA only
[15] = NKA after 0.21 nM antagonist, normalized to NKA only
[16] = NKA after 0.7 nM antagonist, normalized to NKA only
[17] = SP after 0.07 nM antagonist, normalized to SP only
[18] = SP after 0.21 nM antagonist, normalized to SP only
[19] = SP after 0.7 nM antagonist, normalized to SP only

C[C@@H](O[C@H]1OCCN(Cc2n[nH]c(=O)[nH]2)[C@H]1c1ccc(F)cc1)c1cc(C(F)(F)F)cc(C(F)(F)F)c1 [Aprepitant, aprepitant]
Onset of receptor activation, cAMP, NKA [1, 8]: 75 ± 13^NS RLU min^−1
Onset of receptor activation, cAMP, NKA [1, 9]: 43 ± 7.7 RLU min^−1
Onset of receptor activation, cAMP, NKA [1, 10]: 9.7 ± 1.6 RLU min^−1
Onset of receptor activation, cAMP, SP [1, 11]: 94 ± 13 RLU min^−1
Emax ([1]; SP after 0.07 nM antagonist, normalized to SP only, read-out: Emax cAMP SP): 62 ± 5.7%
Onset of receptor activation, cAMP, SP [1, 12]: 63 ± 17 RLU min^−1
Emax ([1]; SP after 0.21 nM antagonist, normalized to SP only, read-out: Emax cAMP SP): 55 ± 15%
Onset of receptor activation, cAMP, SP [1, 13]: 36 ± 7 RLU min^−1
Emax ([1]; SP after 0.7 nM antagonist, normalized to SP only, read-out: Emax cAMP SP): 19 ± 5.5%
type of antagonism (insurmountability) [1]: fully insurmountable
decrease of onset of SP-induced cAMP production ([1]; antagonist pre-incubation, first 8 min): up to 6 fold
decrease of onset of NKA-induced cAMP production ([1]; first 8 min): 15 fold
decrease of potency of NKA ([1]; cAMP assay): 10 fold
Emax ([1]; cAMP assay, highest antagonist concentration, read-out: decrease of Emax of SP in comparison to control): > 80%
Emax ([1]; read-out: Emax cAMP NKA, NKA after 0.07 nM antagonist, normalized to NKA only): 71 ± 13%
Emax ([1]; read-out: Emax cAMP NKA, NKA after 0.21 nM antagonist, normalized to NKA only): 43 ± 19%
Emax ([1]; read-out: Emax cAMP NKA, NKA after 0.7 nM antagonist, normalized to NKA only): 7.8 ± 4.2%
Onset of receptor activation, morphology, NKA (NK1 receptor [2]; NKA after 0.07 nM antagonist): 0.05 ± 0.011^NS NCI min^−1
Onset of receptor activation, morphology, NKA (NK1 receptor [2]; NKA after 0.21 nM antagonist): 0.03 ± 0.007^NS NCI min^−1
Onset of receptor activation, morphology, NKA (NK1 receptor [2]; NKA after 0.7 nM antagonist): 0.006 ± 0.003 NCI min^−1
Onset of receptor activation, morphology, SP (NK1 receptor [2]; SP after 0.07 nM antagonist): 0.05 ± 0.002^NS NCI min^−1
Onset of receptor activation, morphology, SP (NK1 receptor [2]; SP after 0.21 nM antagonist): 0.04 ± 0.006^NS NCI min^−1
Onset of receptor activation, morphology, SP (NK1 receptor [2]; SP after 0.7 nM antagonist): 0.009 ± 0.003 NCI min^−1
Emax (NK1 receptor [2]; U-251, SP after 0.07 nM antagonist, normalized to SP only, read-out: Emax morphology SP): 96 ± 7.6%
Emax (NK1 receptor [2]; U-251, SP after 0.21 nM antagonist, normalized to SP only, read-out: Emax morphology SP): 79 ± 5%
Emax (NK1 receptor [2]; U-251, SP after 0.7 nM antagonist, normalized to SP only, read-out: Emax morphology SP): 53 ± 8.5%
Emax (NK1 receptor [2]; U-251, read-out: Emax morphology NKA, NKA after 0.07 nM antagonist, normalized to NKA only): 97 ± 2.3%
Emax (NK1 receptor [2]; U-251, read-out: Emax morphology NKA, NKA after 0.21 nM antagonist, normalized to NKA only): 79 ± 10%
Emax (NK1 receptor [2]; U-251, read-out: Emax morphology NKA, NKA after 0.7 nM antagonist, normalized to NKA only): 30 ± 6.2%
decrease of onset of NKA-induced morphological changes (NK1 receptor [2]): 8 fold
decrease of onset of SP-induced impedance changes (NK1 receptor [2]): 5 fold
increase of EC50 value of NKA (NK1 receptor [2]): 7 fold
receptor dissociation rate (NK1 receptor [3]): 0.0054 min⁻¹

Cc1ccccc1-c1cc(N2CCN(C)CC2)ncc1N(C)C(=O)C(C)(C)c1cc(C(F)(F)F)cc(C(F)(F)F)c1 [netupitant]
type of antagonism (NK1 receptor [4]): insurmountable

C[C@@H](O[C@H]1OCCN(Cc2n[nH]c(=O)[nH]2)[C@H]1c1ccccc1)c1cc(C(F)(F)F)cc(C(F)(F)F)c1 [DFA, desfluoro aprepitant]
pKi (NK1 receptor [5]): 9.3 ± 0.04
KRI (kinetic rate index) (NK1 receptor [6]): 1.0 ± 0.13
Onset of receptor activation, cAMP, NKA [1, 8]: 98 ± 29^NS RLU min^−1
Emax cAMP NKA [1, 14]: 84 ± 18^NS %
Onset of receptor activation, cAMP, NKA [1, 9]: 98 ± 33^NS RLU min^−1
Emax cAMP NKA [1, 15]: 67 ± 10 %
Onset of receptor activation, cAMP, NKA [1, 10]: 71 ± 22^NS RLU min^−1
Emax cAMP NKA [1, 16]: 61 ± 15 %
Onset of receptor activation, cAMP, SP [1, 11]: 125 ± 31^NS RLU min^−1
Emax cAMP SP [1, 17]: 78 ± 4.5 %
Onset of receptor activation, cAMP, SP [1, 12]: 120 ± 27^NS RLU min^−1
Emax cAMP SP [1, 18]: 75 ± 7.7 %
Onset of receptor activation, cAMP, SP [1, 13]: 158 ± 26^NS RLU min^−1
Emax cAMP SP [1, 19]: 61 ± 10 %
EC50 ([1]; SP after 30 min pre-incubation with 0.07 nM antagonist, read-out: EC50 cAMP SP): 1.9 ± 0.5 nM
EC50 ([1]; SP after 30 min pre-incubation with 0.21 nM antagonist, read-out: EC50 cAMP SP): 2.7 ± 0.8 nM
EC50 ([1]; SP after 30 min pre-incubation with 0.7 nM antagonist, read-out: EC50 cAMP SP): 2.3 ± 0.7 nM
type of antagonism (insurmountability) [1]: partially insurmountable
IC50 ([1]; antagonist pre-incubation, then EC80 concentration of NKA, read-out: IC50 (cAMP)): 0.26 ± 0.08 nM
IC50 ([1]; antagonist pre-incubation, then EC80 concentration of SP, read-out: IC50 (cAMP assay)): 0.15 ± 0.02 nM
decrease of onset of NKA-induced cAMP production ([1]; first 8 min): did not significantly decrease
decrease of potency of NKA ([1]; cAMP assay): did not affect
decrease of Emax of SP in comparison to control ([1]; cAMP assay, highest antagonist concentration): 39%
EC50 ([1]; read-out: EC50 cAMP NKA, NKA after 30 min pre-incubation with 0.07 nM antagonist): 399 ± 19 nM
EC50 ([1]; read-out: EC50 cAMP NKA, NKA after 30 min pre-incubation with 0.21 nM antagonist): 304 ± 89 nM
EC50 ([1]; read-out: EC50 cAMP NKA, NKA after 30 min pre-incubation with 0.7 nM antagonist): 1080 ± 356 nM
Onset of receptor activation, morphology, NKA (NK1 receptor [2]; NKA after 0.07 nM antagonist): 0.06 ± 0.005^NS NCI min^−1
Emax morphology NKA (NK1 receptor [2]; [14]): 109 ± 7.6^NS %
Onset of receptor activation, morphology, NKA (NK1 receptor [2]; NKA after 0.21 nM antagonist): 0.05 ± 0.007^NS NCI min^−1
Emax morphology NKA (NK1 receptor [2]; [15]): 108 ± 6.7^NS %
Onset of receptor activation, morphology, NKA (NK1 receptor [2]; NKA after 0.7 nM antagonist): 0.04 ± 0.014^NS NCI min^−1
Emax morphology NKA (NK1 receptor [2]; [16]): 81 ± 8.9 %
Onset of receptor activation, morphology, SP (NK1 receptor [2]; SP after 0.07 nM antagonist): 0.06 ± 0.006^NS NCI min^−1
Emax morphology SP (NK1 receptor [2]; [17]): 97 ± 5.6^NS %
Onset of receptor activation, morphology, SP (NK1 receptor [2]; SP after 0.21 nM antagonist): 0.05 ± 0.006^NS NCI min^−1
Emax morphology SP (NK1 receptor [2]; [18]): 104 ± 4.2^NS %
Onset of receptor activation, morphology, SP (NK1 receptor [2]; SP after 0.7 nM antagonist): 0.03 ± 0.005 NCI min^−1
Emax morphology SP (NK1 receptor [2]; [19]): 82 ± 6.9 %
EC50 (NK1 receptor [2]; SP after 30 min pre-incubation with 0.07 nM antagonist, read-out: EC50 morphology SP): 0.053 ± 0.02 nM
EC50 (NK1 receptor [2]; SP after 30 min pre-incubation with 0.21 nM antagonist, read-out: EC50 morphology SP): 0.06 ± 0.015 nM
EC50 (NK1 receptor [2]; SP after 30 min pre-incubation with 0.7 nM antagonist, read-out: EC50 morphology SP): 3 ± 1.3 nM
IC50 (NK1 receptor [2]; then EC80 concentration of NKA, read-out: IC50 (morphology)): 0.12 ± 0.006 nM
IC50 (NK1 receptor [2]; then EC80 concentration of SP, read-out: IC50 (morphology assay)): 0.22 ± 0.1 nM
decrease of onset of NKA-induced morphological changes (NK1 receptor [2]): did not significantly decrease
decrease of onset of SP-induced impedance changes (NK1 receptor [2]): less significant
EC50 (NK1 receptor [2]; read-out: EC50 morphology NKA, NKA after 30 min pre-incubation with 0.07 nM antagonist): 3 ± 0.52 nM
EC50 (NK1 receptor [2]; read-out: EC50 morphology NKA, NKA after 30 min pre-incubation with 0.21 nM antagonist): 3.3 ± 0.45 nM
EC50 (NK1 receptor [2]; read-out: EC50 morphology NKA, NKA after 30 min pre-incubation with 0.7 nM antagonist): 8.5 ± 0.46 nM
increase of EC50 value of NKA (NK1 receptor [2]): 2 fold

O=c1[nH]nc(CN2CCO[C@H](OCc3cc(C(F)(F)F)cc(C(F)(F)F)c3)[C@@H]2c2ccccc2)[nH]1 [L-742,694]
effect on Emax of SP after pre-incubation (NK1 receptor [4]): clear decrease

CSCC[C@H](NC(=O)[C@H](CC(C)C)NC(=O)CNC(=O)[C@@H](NC(=O)[C@H](Cc1ccccc1)NC(=O)[C@H](CO)NC(=O)[C@H](CC(=O)O)NC(=O)[C@@H](NC(=O)[C@H](CCCCN)NC(=O)[C@@H](N)Cc1c[nH]cn1)[C@@H](C)O)C(C)C)C(N)=O [NKA, neurokinin A]
Emax morphology NKA (NK1 receptor [7]): 100 ± 0.44 %
